Results from the NIST ThermoML archive (doi:10.1021/je0302001).
Numbers after ± are expanded uncertainties.

Experiment: mn = molality of the nth substance listed, in mol/kg
Conditions: for speed of sound / mass density / viscosity: 101.3 kPa, Liquid; for viscosity: Capillary tube (Ostwald / Ubbelohde) method; for surface tension liquid-gas: Ring tensiometer

O=[N+]([O-])[O-].O=[N+]([O-])[O-].[Zn+2] [nitric acid, zinc salt] + O
Conditions	mass density [kg/m3]	speed of sound [m/s]	surface tension liquid-gas [mN/m]	viscosity [mPa·s]
303.15 K, m1 = 2.145	–	1622.9 ± 4.3	–	–
303.15 K, m1 = 2.29	–	1632.6 ± 4.3	–	–
303.15 K, m1 = 2.292	–	1630.1 ± 4.3	–	–
303.15 K, m1 = 2.344	–	1634.7 ± 4.3	–	–
303.15 K, m1 = 2.91	–	1664 ± 4.4	–	–
303.15 K, m1 = 3.472	–	1691.2 ± 4.5	–	–
303.15 K, m1 = 4.075	–	1714.1 ± 4.5	–	–
303.15 K, m1 = 4.817	–	1739.4 ± 4.6	–	–
303.15 K, m1 = 5.224	–	1748.1 ± 4.6	–	–
303.15 K, m1 = 5.797	–	1760.4 ± 4.6	–	–
303.15 K, m1 = 6.34	–	1768.2 ± 4.7	–	–
303.15 K, m1 = 6.89	–	1772.4 ± 4.7	–	–
303.15 K, m1 = 7.349	–	1774 ± 4.7	–	–
303.2 K, m1 = 6.89	1705.2 ± 1.6	–	–	–
303.25 K, m1 = 5.8	1629.7 ± 1.5	–	–	–
303.65 K, m1 = 0.6111	1084.7 ± 0.8	–	–	–
303.65 K, m1 = 1.906	1255.3 ± 1	–	–	–
303.7 K, m1 = 0.3388	1045.4 ± 0.7	–	–	–
303.75 K, m1 = 1.113	1154 ± 0.8	–	–	–
303.75 K, m1 = 1.258	1173.4 ± 0.9	–	–	–
303.75 K, m1 = 4.075	1486.4 ± 1.3	–	–	–
303.85 K, m1 = 4.817	1551.9 ± 1.3	–	–	–
303.95 K, m1 = 2.29	1300.6 ± 1	–	–	–
304 K, m1 = 3.472	1428.2 ± 1.2	–	–	–
304.15 K, m1 = 5.224	1584.8 ± 1.4	–	–	–
304.2 K, m1 = 7.349	1732.6 ± 1.6	–	–	–
304.3 K, m1 = 1.551	1210.3 ± 0.9	–	–	–
304.3 K, m1 = 2.344	1306.7 ± 1	–	–	–
304.35 K, m1 = 0.6405	1088.5 ± 0.8	–	–	–
304.45 K, m1 = 2.292	1300.6 ± 1	–	–	–
304.85 K, m1 = 0.1329	1014.5 ± 0.7	–	–	–
304.85 K, m1 = 2.91	1369.1 ± 1.1	–	–	–
304.85 K, m1 = 6.89	1703.4 ± 1.6	–	–	–
305.1 K, m1 = 5.8	1627.9 ± 1.5	–	–	–
305.4 K, m1 = 2.145	1282.8 ± 1	–	–	–
305.45 K, m1 = 6.34	1666.3 ± 1.5	–	–	–
305.65 K, m1 = 0.0875	1007.5 ± 0.7	–	–	–
305.65 K, m1 = 4.075	1484.9 ± 1.3	–	–	–
305.7 K, m1 = 1.906	1254.1 ± 1	–	–	–
306.1 K, m1 = 1.258	1172 ± 0.9	–	–	–
306.15 K, m1 = 2.29	1299.2 ± 1	–	–	–
306.25 K, m1 = 0.2466	1031 ± 0.7	–	–	–
306.25 K, m1 = 1.113	1152.7 ± 0.8	–	–	–
306.3 K, m1 = 2.344	1305.3 ± 1	–	–	–
306.35 K, m1 = 0.6111	1083.6 ± 0.8	–	–	–
306.35 K, m1 = 2.292	1299.4 ± 1	–	–	–
306.55 K, m1 = 1.551	1209.4 ± 0.9	–	–	–
306.6 K, m1 = 0.3388	1044.3 ± 0.7	–	–	–
306.75 K, m1 = 2.91	1367.8 ± 1.1	–	–	–
307.05 K, m1 = 0.6405	1087.4 ± 0.8	–	–	–
307.35 K, m1 = 2.145	1281.5 ± 1	–	–	–
307.5 K, m1 = 4.817	1548.6 ± 1.4	–	–	–
307.55 K, m1 = 4.075	1483.4 ± 1.3	–	–	–
307.55 K, m1 = 7.349	1729.2 ± 1.6	–	–	–
307.75 K, m1 = 3.472	1425.1 ± 1.2	–	–	–
307.75 K, m1 = 5.224	1581.5 ± 1.4	–	–	–
307.85 K, m1 = 0.1329	1013.4 ± 0.7	–	–	–
307.9 K, m1 = 1.906	1252.7 ± 1	–	–	–
308.15 K, m1 = 0.0875	–	1525.6 ± 4.1	–	–
308.15 K, m1 = 0.1329	–	1523.4 ± 4	–	0.76 ± 0.009
308.15 K, m1 = 0.2466	–	1527.9 ± 4.1	–	0.787 ± 0.009
308.15 K, m1 = 0.3388	–	1532.5 ± 4.1	–	0.809 ± 0.009
308.15 K, m1 = 0.6111	–	1543.7 ± 4.1	–	0.884 ± 0.01
308.15 K, m1 = 0.6405	–	1544.7 ± 4.1	–	0.892 ± 0.01
308.15 K, m1 = 1.113	–	1566.6 ± 4.2	–	1.044 ± 0.012
308.15 K, m1 = 1.258	–	1576.6 ± 4.2	–	1.107 ± 0.013
308.15 K, m1 = 1.551	–	1592.5 ± 4.2	–	1.216 ± 0.014
308.15 K, m1 = 1.906	–	1612.5 ± 4.3	–	1.405 ± 0.016
308.15 K, m1 = 2.145	–	1624.2 ± 4.3	–	1.548 ± 0.018
308.15 K, m1 = 2.29	–	1632.3 ± 4.3	–	1.622 ± 0.019
308.15 K, m1 = 2.292	–	1630.7 ± 4.3	–	–
308.15 K, m1 = 2.344	–	1635 ± 4.3	–	1.645 ± 0.019
308.15 K, m1 = 2.91	–	1662.2 ± 4.4	–	2.035 ± 0.024
308.15 K, m1 = 3.472	–	1687 ± 4.5	–	2.554 ± 0.031
308.15 K, m1 = 4.075	–	1708.9 ± 4.5	–	3.149 ± 0.038
308.15 K, m1 = 4.817	–	1733.1 ± 4.6	–	4.24 ± 0.052
308.15 K, m1 = 5.224	–	1740.5 ± 4.6	–	4.878 ± 0.06
308.15 K, m1 = 5.797	–	1751.6 ± 4.6	–	6.183 ± 0.077
308.15 K, m1 = 6.34	–	1757.7 ± 4.6	–	7.469 ± 0.093
308.15 K, m1 = 6.89	–	1762.2 ± 4.7	–	9.274 ± 0.12
308.15 K, m1 = 7.349	–	1762.6 ± 4.7	–	10.94 ± 0.14
308.25 K, m1 = 2.344	1303.9 ± 1	–	–	–
308.3 K, m1 = 1.258	1170.8 ± 0.9	–	–	–
308.35 K, m1 = 1.113	1151.6 ± 0.9	–	–	–
308.35 K, m1 = 6.89	1699.9 ± 1.6	–	–	–
308.6 K, m1 = 1.551	1208.2 ± 0.9	–	–	–
308.75 K, m1 = 0.0875	1006.4 ± 0.7	–	–	–
308.75 K, m1 = 5.8	1624.4 ± 1.5	–	–	–
308.85 K, m1 = 2.91	1366.3 ± 1.1	–	–	–
309.05 K, m1 = 0.6111	1082.4 ± 0.8	–	–	–
309.1 K, m1 = 6.34	1662.7 ± 1.5	–	–	–
309.15 K, m1 = 0.2466	1029.9 ± 0.7	–	–	–
309.35 K, m1 = 4.817	1546.9 ± 1.4	–	–	–
309.4 K, m1 = 0.3388	1043.2 ± 0.8	–	–	–
309.45 K, m1 = 0.6405	1086.3 ± 0.8	–	–	–
309.45 K, m1 = 2.145	1280.1 ± 1	–	–	–
309.55 K, m1 = 3.472	1423.6 ± 1.2	–	–	–
309.55 K, m1 = 5.224	1579.9 ± 1.4	–	–	–
310.1 K, m1 = 2.29	1296.5 ± 1	–	–	–
310.35 K, m1 = 2.344	1302.6 ± 1	–	–	–
310.45 K, m1 = 1.258	1169.6 ± 0.9	–	–	–
310.45 K, m1 = 2.292	1296.6 ± 1	–	–	–
310.45 K, m1 = 5.8	1622.9 ± 1.5	–	–	–
310.7 K, m1 = 1.113	1150.3 ± 0.9	–	–	–
310.7 K, m1 = 2.91	1364.9 ± 1.1	–	–	–
310.75 K, m1 = 0.1329	1012.3 ± 0.7	–	–	–
310.75 K, m1 = 6.34	1661.1 ± 1.5	–	–	–
310.8 K, m1 = 7.764	1749.7 ± 1.7	–	–	–
310.85 K, m1 = 1.551	1206.9 ± 0.9	–	–	–
310.95 K, m1 = 7.349	1725.6 ± 1.6	–	–	–
311.15 K, m1 = 4.817	1545.4 ± 1.4	–	–	–
311.25 K, m1 = 5.224	1578.2 ± 1.4	–	–	–
311.35 K, m1 = 0.6111	1081.4 ± 0.8	–	–	–
311.35 K, m1 = 3.472	1422.1 ± 1.2	–	–	–
311.35 K, m1 = 4.075	1480.4 ± 1.3	–	–	–
311.4 K, m1 = 2.145	1278.8 ± 1	–	–	–
311.5 K, m1 = 0.0875	1005.4 ± 0.7	–	–	–
311.7 K, m1 = 6.89	1696.5 ± 1.6	–	–	–
311.85 K, m1 = 0.2466	1028.8 ± 0.8	–	–	–
311.85 K, m1 = 0.3388	1042.2 ± 0.8	–	–	–
311.9 K, m1 = 0.6405	1085.1 ± 0.8	–	–	–
311.9 K, m1 = 1.906	1250.1 ± 1	–	–	–
312 K, m1 = 2.29	1295.1 ± 1.1	–	–	–
312.25 K, m1 = 5.8	1621 ± 1.5	–	–	–
312.35 K, m1 = 2.292	1295.2 ± 1.1	–	–	–
312.55 K, m1 = 6.34	1659.2 ± 1.6	–	–	–
312.7 K, m1 = 1.258	1168.4 ± 0.9	–	–	–
312.85 K, m1 = 1.113	1149.1 ± 0.9	–	–	–
312.95 K, m1 = 1.551	1205.6 ± 0.9	–	–	–
313.05 K, m1 = 5.224	1576.6 ± 1.4	–	–	–
313.15 K, m1 = 0.0875	–	1533.4 ± 4.1	–	–
313.15 K, m1 = 0.1329	–	1531.7 ± 4.1	–	0.691 ± 0.008
313.15 K, m1 = 0.2263	–	–	70.59 ± 0.9	–
313.15 K, m1 = 0.2466	–	1535.7 ± 4.1	–	0.716 ± 0.008
313.15 K, m1 = 0.334	–	–	70.83 ± 0.9	–
313.15 K, m1 = 0.3388	–	–	–	0.739 ± 0.009
313.15 K, m1 = 0.6111	–	–	–	0.805 ± 0.009
313.15 K, m1 = 0.6198	–	–	71.5 ± 0.91	–
313.15 K, m1 = 0.6405	–	–	–	0.813 ± 0.009
313.15 K, m1 = 0.8228	–	–	72.2 ± 0.92	–
313.15 K, m1 = 1.113	–	–	–	0.952 ± 0.011
313.15 K, m1 = 1.258	–	–	–	1.01 ± 0.012
313.15 K, m1 = 1.259	–	–	73.37 ± 0.94	–
313.15 K, m1 = 1.549	–	–	74.1 ± 0.96	–
313.15 K, m1 = 1.551	–	–	–	1.106 ± 0.013
313.15 K, m1 = 1.818	–	–	74.61 ± 0.97	–
313.15 K, m1 = 1.906	–	–	–	1.277 ± 0.015
313.15 K, m1 = 2.145	–	–	–	1.408 ± 0.017
313.15 K, m1 = 2.222	–	–	76.05 ± 0.99	–
313.15 K, m1 = 2.29	–	–	–	1.475 ± 0.017
313.15 K, m1 = 2.344	–	–	–	1.495 ± 0.018
313.15 K, m1 = 2.526	–	–	77.02 ± 1	–
313.15 K, m1 = 2.721	–	–	77.55 ± 1	–
313.15 K, m1 = 2.91	–	–	–	1.843 ± 0.022
313.15 K, m1 = 3.426	–	–	79.09 ± 1.1	–
313.15 K, m1 = 3.472	–	–	–	2.305 ± 0.028
313.15 K, m1 = 4.011	–	–	80.79 ± 1.1	–
313.15 K, m1 = 4.075	–	–	–	2.868 ± 0.035
313.15 K, m1 = 4.231	–	–	81.05 ± 1.1	–
313.15 K, m1 = 4.817	–	–	–	3.774 ± 0.046
313.15 K, m1 = 5.133	–	–	83.04 ± 1.1	–
313.15 K, m1 = 5.224	–	–	–	4.322 ± 0.053
313.15 K, m1 = 5.797	–	–	–	5.432 ± 0.067
313.15 K, m1 = 6.245	–	–	84.64 ± 1.2	–
313.15 K, m1 = 6.34	–	–	–	6.509 ± 0.081
313.15 K, m1 = 6.89	–	–	–	7.997 ± 0.1
313.15 K, m1 = 7.349	–	–	–	9.383 ± 0.12
